Data taken from patent US10865191B2, “Heterocyclic compounds useful as modulators of TNF alpha” (BRISTOL-MYERS SQUIBB COMPANY, priority 2015, dated 2020).
pIC50: −log10 of the molar value. Like-named read-outs stand apart in the source and are kept apart here.

Target: TNFα (Homo sapiens, UniProt P01375)
Test: TNF induced HEK-Blue assay (NF-kB-driven secreted alkaline phosphatase reporter)
Assay type: cell-based
Settings: TNFα 0.5 ng/mL, HEK-Blue-CD40L cells, 18 h
Procedure, shortened: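 HEK-Blue-CD40L cells (NF-kB-driven SEAP reporter), 20,000/well, added after 30 min pre-incubation of compound (0.004–25 μM final) with TNFα 0.5 ng/mL final at 37 °C; 18 h incubation. SEAP read with QUANTI-Blue at 620 nm; IC50 from 4-parameter logistic fit, normalized to unstimulated and stimulated DMSO controls.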

[1] = read-out: TNF induced HEK-Blue assay IC50 value
[2] = TNF induced HEK-Blue assay IC50 value

Chain of TNFα (P01375 77-233 limits assumed): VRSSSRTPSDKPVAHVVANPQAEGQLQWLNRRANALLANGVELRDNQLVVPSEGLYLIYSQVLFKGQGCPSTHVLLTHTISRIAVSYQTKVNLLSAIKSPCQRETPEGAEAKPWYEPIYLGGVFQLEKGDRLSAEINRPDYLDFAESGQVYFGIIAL

SMILES | pIC50 [1] | pIC50 [2]
Cc1nc2ccc(-c3cnc(C(C)(C)O)nc3)cc2c(N[C@@H](c2cc(C(N)CO)ccc2F)C(F)F)c1Cl (mixture of isomers) [Example 434, 2-(5-(4-(((1 S)-1-(5-(1-amino-2-hydroxyethyl)-2-fluorophenyl)-2,2-difluoroethyl)amino)-3-chloro-2-methylquinolin-6-yl)pyrimidin-2-yl)propan-2-ol] | > 6.00 | 
CC(Nc1c(Cl)cnc2ccc(-c3cnc(N4CCNC(=O)C4)nc3)cc12)c1nc(C(N)=O)ccc1F (single isomer, unassigned) [Example 25, 6-(1-((3-chloro-6-(2-(3-oxopiperazin-1-yl)pyrimidin-5-yl)quinolin-4-yl)amino)ethyl)-5-fluoropicolinamide] | 5.00 to 6.00 | 
CC(Nc1c(Cl)cnc2ccc(-c3cnc(N4CCNC(=O)C4)nc3)cc12)c1nc(C(N)=O)ccc1F (single isomer, unassigned) [Example 26, 6-(1-((3-chloro-6-(2-(3-oxopiperazin-1-yl)pyrimidin-5-yl)quinolin-4-yl)amino)ethyl)-5-fluoropicolinamide] | > 6.00 | 
CC(C)(O)c1ncc(-c2ccc3ncc(Cl)c(NC(c4ccccc4F)C(F)F)c3c2)cn1 (single isomer, unassigned) [Example 55, 2-(5-(3-chloro-4-((2,2-difluoro-1-(2-fluorophenyl)ethyl)amino)quinolin-6-yl)pyrimidin-2-yl)propan-2-ol] | > 6.00 | 
CC(C)(O)c1ncc(-c2ccc3ncc(Cl)c(NC(c4ccccc4F)C(F)F)c3c2)cn1 (single isomer, unassigned) [Example 55a] | > 6.00 | 
CC(Nc1c(Cl)cnc2ccc(-c3cnc(C(C)(C)O)nc3)cc12)[C@H]1CCCNC1 (single isomer, unassigned) [Example 96] | 4.60 to 5.00 | 
CC(Nc1c(Cl)cnc2ccc(-c3cnc(C(C)(C)O)nc3)cc12)[C@H]1CCCNC1 (single isomer, unassigned) [Example 97] | > 6.00 | 
CC(Nc1c(Cl)cnc2ccc(-c3cnc(C(C)(C)O)nc3)cc12)[C@@H]1CCCN(C(N)=O)C1 (single isomer, unassigned) [Example 104] | 5.00 to 6.00 | 
CC(=O)N1CCC[C@@H](C(C)Nc2c(Cl)cnc3ccc(-c4cnc(C(C)(C)O)nc4)cc23)C1 (single isomer, unassigned) [Example 108] |  | 5.00 to 6.00
C[C@H](Nc1c(Cl)cnc2cnc(-c3cnc(C(C)(C)O)nc3)cc12)c1ccccc1F (single isomer, unassigned) [Example 234] |  | 4.60 to 5.00
C[C@@H](Nc1c(Cl)cnc2cnc(-c3cnc(N4CCN(CC(=O)O)CC4)nc3)cc12)c1ccccc1F (single isomer, unassigned) [Example 235] | 4.60 to 5.00 | 
C[C@H](Nc1c(Cl)cnc2cnc(-c3cnc(N4CCN(CC(=O)O)CC4)nc3)cc12)c1ccccc1F (single isomer, unassigned) [Example 236] | 4.60 to 5.00 | 
CC(C)(O)c1ncc(-c2ccc3ncc(Cl)c(N[C@H](CCF)c4ccccc4F)c3c2)cn1 (single isomer, unassigned) [Example 238] | > 6.00 | 
CC(Nc1c(Cl)cnc2cc(F)c(-c3cnc(C(C)(C)O)nc3)cc12)c1ccccc1F (single isomer, unassigned) [Example 241, 2-(5-(3-chloro-7-fluoro-4-((1-(2-fluorophenyl)ethyl)amino)quinolin-6-yl)pyrimidin-2-yl)propan-2-ol] |  | > 6.00
CC(Nc1c(Cl)cnc2cc(F)c(-c3cnc(N4CCN(CC(=O)O)CC4)nc3)cc12)c1ccccc1F (single isomer, unassigned) [Example 242, 2-(4-(5-(3-chloro-7-fluoro-4-((1-(2-fluorophenyl)ethyl)amino)quinolin-6-yl)pyrimidin-2-yl)piperazin-1-yl)acetic acid] | > 6.00 | 
CCOC(=O)C1CCN(c2ncc(-c3cc4c(NC(C)c5ccccc5F)c(Cl)cnc4cc3F)cn2)CC1 (single isomer, unassigned) [Example 243, ethyl-1-(5-(3-chloro-7-fluoro-4-((1-(2-fluorophenyl)ethyl)amino)quinolin-6-yl)pyrimidin-2-yl)piperidine-4-carboxylate] | > 6.00 | 
CC(Nc1c(Cl)cnc2cc(F)c(-c3cnc(N4CCC(C(=O)O)CC4)nc3)cc12)c1ccccc1F (single isomer, unassigned) [Example 244, 1-(5-(3-chloro-7-fluoro-4-((1-(2-fluorophenyl)ethyl)amino)quinolin-6-yl)pyrimidin-2-yl)piperidine-4-carboxylic acid] | > 6.00 | 
CC(Nc1c(Cl)cnc2cc(F)c(-c3cnc(N4CCC(C(C)(C)O)CC4)nc3)cc12)c1ccccc1F (single isomer, unassigned) [Example 245, 2-(1-(5-(3-chloro-7-fluoro-4-((1-(2-fluorophenyl)ethyl)amino)quinolin-6-yl)pyrimidin-2-yl)piperidin-4-yl)propan-2-ol] | > 6.00 | 

SMILES | pIC50 [1] | pIC50 [2]
Cc1nc2ccc(-c3cnc(C(C)(C)O)nc3)cc2c(C(O)C(C)CC(C)C)c1Cl (single isomer, unassigned) [Example 355, 1-(3-Chloro-6-(2-(2-hydroxypropan-2-yl)pyrimidin-5-yl)-2-methylquinolin-4-yl)-2,4-dimethylpentan-1-ol] | 5.00 to 6.00 | 
CCCC(C)C(N)c1c(Cl)c(C)nc2ccc(-c3cnc(C(C)(C)O)nc3)cc12 (single isomer, unassigned) [Example 357, 2-(5-(4-(1-amino-2-methylpentyl)-3-chloro-2-methylquinolin-6-yl)pyrimidin-2-yl)propan-2-ol] | 5.00 to 6.00 | 
CCCC(C)C(N)c1c(Cl)c(C)nc2ccc(-c3cnc(C(C)(C)O)nc3)cc12 (single isomer, unassigned) [Example 358, 2-(5-(4-(1-amino-2-methylpentyl)-3-chloro-2-methylquinolin-6-yl)pyrimidin-2-yl)propan-2-ol] | 4.60 to 5.00 | 
C[C@@H](Nc1c(Cl)cnc2ccc(-c3cnc(C(C)(C)O)nc3)cc12)c1cc(C(O)CO)ccc1F (single isomer, unassigned) [Example 400] | > 6.00 | 
C[C@@H](Nc1c(Cl)cnc2ccc(-c3cnc(C(C)(C)O)nc3)cc12)c1cc(C(O)CO)ccc1F (single isomer, unassigned) [Example 401] | > 6.00 | 
C[C@@H](Nc1c(Cl)cnc2ccc(-c3cnc(C(C)(C)O)nc3)cc12)c1cc(C2NC(=O)NC2=O)ccc1F (single isomer, unassigned) [Example 422] | > 6.00 | 
C[C@@H](Nc1c(Cl)cnc2ccc(-c3cnc(C(C)(C)O)nc3)cc12)c1cc(C2NC(=O)NC2=O)ccc1F (single isomer, unassigned) [Example 423] | > 6.00 | 
CC(Nc1c(Cl)cnc2cc(F)c(-c3cnc(C(C)(C)O)cn3)cc12)c1ccccc1F (single isomer, unassigned) [Example 595, 2-(5-(3-chloro-7-fluoro-4-((1-(2-fluorophenyl)ethyl)amino)quinolin-6-yl)pyrazin-2-yl)propan-2-ol] | > 6.00 | 
CC(Nc1c(Cl)cnc2cc(F)c(-c3cnc(C(O)CO)nc3)cc12)c1ccccc1F (single isomer, unassigned) [Example 596, 1-(5-(3-chloro-7-fluoro-4-((1-(2-fluorophenyl)ethyl)amino)quinolin-6-yl)pyrimidin-2-yl)ethane-1,2-diol] | > 6.00 | 
CC(Nc1c(Cl)cnc2cc(F)c(-c3cnc(C(O)CO)nc3)cc12)c1ccccc1F (single isomer, unassigned) [Example 597, 1-(5-(3-chloro-7-fluoro-4-((1-(2-fluorophenyl)ethyl)amino)quinolin-6-yl)pyrimidin-2-yl)ethane-1,2-diol] | 5.00 to 6.00 | 
CC(Nc1c(Cl)cnc2cc(F)c(-c3ccc(C4COCCN4)cc3)cc12)c1ccccc1F (single isomer, unassigned) [Example 598, 3-chloro-7-fluoro-N-(1-(2-fluorophenyl)ethyl)-6-(4-(morpholin-3-yl)phenyl)quinolin-4-amine] | 5.00 to 6.00 | 
CNCC(O)c1ccc(-c2cc3c(NC(C)c4ccccc4F)c(Cl)cnc3cc2F)cc1 (single isomer, unassigned) [Example 600, 1-(4-(3-chloro-7-fluoro-4-((1-(2-fluorophenyl)ethyl)amino)quinolin-6-yl)phenyl)-2-(methylamino)ethan-1-ol] | > 6.00 | 
CC(Nc1c(Cl)cnc2cc(F)c(-c3ccc(C(O)CO)cc3)cc12)c1cc(C(N)=O)ccc1F (single isomer, unassigned) [Example 601, 3-(1-((3-chloro-6-(4-(1,2-dihydroxyethyl)phenyl)-7-fluoroquinolin-4-yl)amino)ethyl)-4-fluorobenzamide] | > 6.00 | 
CC(Nc1c(Cl)cnc2cc(F)c(-c3cnc(N4CCN(C(=O)CCC(=O)O)CC4)nc3)cc12)c1ccccc1F (single isomer, unassigned) [Example 602, 4-(4-(5-(3-chloro-7-fluoro-4-((1-(2-fluorophenyl)ethyl)amino)quinolin-6-yl)pyrimidin-2-yl)piperazin-1-yl)-4-oxobutanoic acid] | > 6.00 | 
CC(O)C(=O)N1CCN(c2ncc(-c3cc4c(NC(C)c5ccccc5F)c(Cl)cnc4cc3F)cn2)CC1 (single isomer, unassigned) [Example 603, 1-(4-(5-(3-chloro-7-fluoro-4-((1-(2-fluorophenyl)ethyl)amino)quinolin-6-yl)pyrimidin-2-yl)piperazin-1-yl)-2-hydroxypropan-1-one] | > 6.00 | 
CC(Nc1c(Cl)cnc2cc(F)c(-c3cnc(N4CCN(C(=O)[C@@H](N)CO)CC4)nc3)cc12)c1ccccc1F (single isomer, unassigned) [Example 604] | > 6.00 | 
CC(Nc1c(Cl)cnc2cc(F)c(-c3cnc(N4CCN(C(=O)[C@@H](N)CC(=O)O)CC4)nc3)cc12)c1ccccc1F (single isomer, unassigned) [Example 605, (3 S)-3-amino-4-(4-(5-(3-chloro-7-fluoro-4-((1-(2-fluorophenyl)ethyl)amino)quinolin-6-yl)pyrimidin-2-yl)piperazin-1-yl)-4-oxobutanoic acid] | > 6.00 | 
